Data as given in patent publication US6288230A, “2-(2, 3-dihydrobenzofuran-5-yl)-4-aminomethylimidazoles: dopamine receptor subtype specific ligands” (Neurogen Corporation, priority 1999, dated 2001).
pKi: −log10 of the molar value. Structures can show the parent of a compound that is named as a salt.

Experiments:
D2 receptor = D2 receptor (Chlorocebus aethiops, UniProt P52702); assay: D2 receptor binding (displacement of 3H-YM 09151-2, COS cells with recombinant receptor); parameters: species or system African Green monkey; settings: 0.5 nM 3H-YM 09151-2; nonspecific binding with 1 mM spiperone
D4 receptor = D4 receptor binding (displacement of 3H-YM 09151-2, COS cells with recombinant receptor); parameters: species or system African Green monkey; settings: 0.5 nM 3H-YM 09151-2; nonspecific binding with 1 mM spiperone
Experimental: Pellets of COS cells containing recombinantly produced D2 or D4 receptors from African Green monkey are used for the assays. The sample is homogenized in 100 volumes (w/vol) of 0.05 M Tris HCl buffer at […] and pH 7.4. The sample is then centrifuged at 30,000×g and resuspended and rehomogenized. The sample is then centrifuged again at 30,000×g and the final tissue sample is frozen until use. The tissue is resuspended 1:20 (wt/vol) in 0.05 M Tris HCl buffer containing 100 mM NaCl.

Sequence of D2 receptor (P52702 whole entry): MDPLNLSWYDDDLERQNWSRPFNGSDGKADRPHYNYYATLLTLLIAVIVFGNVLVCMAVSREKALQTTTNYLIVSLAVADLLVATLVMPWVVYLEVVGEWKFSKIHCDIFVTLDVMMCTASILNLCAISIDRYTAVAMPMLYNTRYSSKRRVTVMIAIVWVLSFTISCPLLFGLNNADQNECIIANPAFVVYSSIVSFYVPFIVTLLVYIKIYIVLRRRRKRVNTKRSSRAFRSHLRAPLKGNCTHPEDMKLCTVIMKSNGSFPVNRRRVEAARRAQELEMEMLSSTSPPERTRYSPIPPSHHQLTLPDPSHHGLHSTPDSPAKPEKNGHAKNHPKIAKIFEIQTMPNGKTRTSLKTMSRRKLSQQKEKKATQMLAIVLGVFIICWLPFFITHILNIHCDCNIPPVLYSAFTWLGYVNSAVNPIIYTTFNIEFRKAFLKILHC

Row | Compound | pKi (D2 receptor) | pKi (D4 receptor)
1 | COc1ccccc1N1CCN(Cc2c[nH]c(-c3ccc4c(c3)CCO4)n2)CC1 [Compound 1, 2-(2,3-Dihydrobenzofuran-5-yl)-4-(1-[4-{2-methoxyphenyl}piperazin-1-yl]methyl)imidazole] | 6.84 | 8.52
2 | c1ccc(CC2CCN(Cc3c[nH]c(-c4ccc5c(c4)CCO5)n3)CC2)cc1 [Compound 6, 2-(2,3-Dihydrobenzofuran-5-yl)-4-(1-[4-benzylpiperidin-1-yl]methyl)imidazole hydrochloride] | 6.19 | 8.52
3 | Cc1cnc(N2CCN(Cc3cnc(-c4ccc5c(c4)CCO5)[nH]3)CC2)nc1 [Compound 3a, 5-(5-{[4-(5-methylpyrimidin-2-yl)piperazinyl]-methyl}imidazol-2-yl)-2,3-dihydrobenzo[b]furan] | 6.15 | –

Now from value to compound, other results behind:

Row | pKi (D2 receptor) | Compound | pKi (D4 receptor)
4 | 5.95 | c1ccc2nc(N3CCN(Cc4cnc(-c5ccc6c(c5)CCO6)[nH]4)CC3)ncc2c1 [Compound 7, 2-(2,3-Dihydrobenzofuran-5-yl)-4-(1-[4-{4,5-benzopyrimidin-2-yl}piperazin-1-yl]methyl)imidazole hydrochloride] | 7.49
5 | 6.90 | c1ccc2c(N3CCN(Cc4c[nH]c(-c5ccc6c(c5)CCO6)n4)CC3)nccc2c1 [Compound 8, 2-(2,3-Dihydrobenzofuran-5-yl)-4-(1-[4-{isoquinolin-1-yl}piperazin-1-yl]methyl)imidazole] | 9.00
